Results on twelve compounds are retold here after patent publication US9828379B2 (priority 2013, dated 2017).

Usually IC50 stands for the midpoint of a concentration-inhibition curve. The term inhibition denotes the share of the control response that was lost under treatment.

Experiment [1] has as its target T1, ABHD6 (Mus musculus, UniProt Q8R2Y0).
T1 sequence (Q8R2Y0 1-336): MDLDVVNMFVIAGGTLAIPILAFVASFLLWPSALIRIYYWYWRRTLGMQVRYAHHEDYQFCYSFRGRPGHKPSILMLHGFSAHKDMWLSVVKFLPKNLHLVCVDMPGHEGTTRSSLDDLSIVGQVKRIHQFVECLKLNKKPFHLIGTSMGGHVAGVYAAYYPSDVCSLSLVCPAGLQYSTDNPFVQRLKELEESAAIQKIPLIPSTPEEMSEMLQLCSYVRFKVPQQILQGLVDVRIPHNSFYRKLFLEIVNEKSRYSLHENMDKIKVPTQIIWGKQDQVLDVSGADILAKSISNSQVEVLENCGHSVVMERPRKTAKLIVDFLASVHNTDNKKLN
The experiment in a line: biochemical. Particulars: in vitro competitive ABPP.

Experiment [2] has as its target T2, FAAH (Mus musculus, UniProt O08914).
T2 sequence (O08914 1-579): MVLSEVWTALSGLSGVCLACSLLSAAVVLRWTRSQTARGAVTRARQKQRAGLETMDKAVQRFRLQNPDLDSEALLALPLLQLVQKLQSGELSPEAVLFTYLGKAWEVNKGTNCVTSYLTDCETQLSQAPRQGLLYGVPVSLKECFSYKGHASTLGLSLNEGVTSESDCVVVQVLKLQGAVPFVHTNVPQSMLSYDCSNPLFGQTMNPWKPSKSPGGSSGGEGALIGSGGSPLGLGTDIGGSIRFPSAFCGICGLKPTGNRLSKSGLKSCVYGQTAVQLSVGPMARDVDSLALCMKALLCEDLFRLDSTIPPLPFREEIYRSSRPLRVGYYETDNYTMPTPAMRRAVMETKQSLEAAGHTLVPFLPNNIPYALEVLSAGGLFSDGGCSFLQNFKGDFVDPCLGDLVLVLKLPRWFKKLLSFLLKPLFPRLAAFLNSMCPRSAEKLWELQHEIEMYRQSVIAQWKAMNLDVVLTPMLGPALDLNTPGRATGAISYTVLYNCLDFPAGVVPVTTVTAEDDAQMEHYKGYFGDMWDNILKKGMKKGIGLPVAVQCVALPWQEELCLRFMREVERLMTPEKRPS
The experiment in a line: biochemical. The settings on record: in vitro competitive ABPP.

Experiment [3] concerns the target T3, MAGL (Mus musculus, UniProt O35678).
T3 sequence (O35678 1-303): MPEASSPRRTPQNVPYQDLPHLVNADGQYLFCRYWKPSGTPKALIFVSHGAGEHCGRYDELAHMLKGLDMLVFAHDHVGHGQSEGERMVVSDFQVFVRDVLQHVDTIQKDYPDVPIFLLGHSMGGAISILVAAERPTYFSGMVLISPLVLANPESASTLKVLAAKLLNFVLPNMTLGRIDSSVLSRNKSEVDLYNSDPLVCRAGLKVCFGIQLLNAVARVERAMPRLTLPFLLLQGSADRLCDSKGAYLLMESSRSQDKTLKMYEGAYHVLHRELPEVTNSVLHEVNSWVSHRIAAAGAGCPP
The experiment in a line: biochemical. Particulars: mouse; in vitro competitive ABPP; read-out: Mouse (IC50 value, nM) MAGL.

For experiment [4], the target named is T4, Mouse brain MAGL (Mus musculus, UniProt O35678).
T4 construct: from tissue; host or cells: brain of wild-type C57Bl/6J mice dosed by oral gavage
T4 sequence (O35678 1-303): T3 sequence (O35678 1-303)
The experiment in a line: Mouse brain proteomes from inhibitor treated mice (oral gavage, ABPP analysis). The settings on record: p.o., sacrificed 4 h following administration. The experiment is classed as in vivo.

Experiment [5] deals with T1, ABHD6. The experiment in a line: In vitro competitive activity-based protein profiling (Table 2, % inhibition at 1 μM). The class given is biochemical. Particulars: read-out: % Inhibition at 1 μM ABHD6.
In experiment [6] the target is T2, FAAH. Described as above. The experiment is classed as biochemical. The settings on record: read-out: % Inhibition at 1 μM FAAH.
Experiment [7] deals with T3, MAGL. Described as above. The class given is biochemical. Particulars: read-out: % Inhibition at 1 μM MAGL. How it is done: After 30 min, FP—Rh (1.0 μL, 50 μM in DMSO) was added and the mixture was incubated for another 30 min at 37° C. Reactions were quenched with SDS loading buffer (50 μL-4×) and run on SDS-PAGE.
Cell lysates were diluted with mock proteomes for use in competitive ABPP experiments.

With `O=C(OC(C(F)(F)F)C(F)(F)F)N1CC2CN(Cc3cccc(N4CCOCC4)c3C(F)(F)F)CC2C1` (stereo not drawn) [Example 129, 1,1,1,3,3,3-hexafluoropropan-2-yl 5-[[3-(morpholin-4-yl)-2-(trifluoromethyl)phenyl]methyl]-octahydropyrrolo[3,4-c]pyrrole-2-carboxylate], the IC50 is 1000 to 10000 nM in experiment [1], 1000 to 10000 nM in experiment [2] and less than 100 nM in experiment [3]. Also, in experiment [4], the inhibition at 5 mg/kg is not below 75%. Moreover, the results for the inhibition at 1 µM in experiment [5], in experiment [6] and in experiment [7] were less than 25%, less than 25% and more than 75%, respectively.

As for `CC(=O)N1CCN(c2cccc(CN3CC4CN(C(=O)OC(C(F)(F)F)C(F)(F)F)CC4C3)c2C)CC1` (stereo not drawn) [Example 152, 1,1,1,3,3,3-hexafluoropropan-2-yl 5-[[3-(4-acetylpiperazin-1-yl)-2-methylphenyl]methyl]-octahydropyrrolo[3,4-c]pyrrole-2-carboxylate], the figures for the IC50 in experiment [1], in experiment [2] and in experiment [3] were 1000 to 10000 nM, 1000 to 10000 nM and less than 100 nM, respectively. The compound also registered an inhibition at 5 mg/kg in experiment [4] not above 25%. For the same compound, the inhibition at 1 µM in experiment [5] was 25 to 75%; in experiment [6], less than 25%; in experiment [7] it was more than 75%.

Take `CCn1cc(CN2CC3CN(C(=O)OC(C(F)(F)F)C(F)(F)F)CC3C2)c(-c2cccnc2)n1` (stereo not drawn) [Example 71, 1,1,1,3,3,3-Hexafluoropropan-2-yl 5-[[1-ethyl-3-(pyridin-3-yl)-1H-pyrazol-4-yl]methyl]-octahydropyrrolo[3,4-c]pyrrole-2-carboxylate]: the IC50 in experiment [1] was 1000 to 10000 nM; in experiment [2], 1000 to 10000 nM; in experiment [3], less than 100 nM. In experiment [4], this compound yielded an inhibition at 5 mg/kg of 25 to 75%. Also, the results for the inhibition at 1 µM in experiment [5], in experiment [6] and in experiment [7] were 25 to 75%, less than 25% and more than 75%, respectively.

In the case of `Cc1c(CN2CC3CN(C(=O)OC(C(F)(F)F)C(F)(F)F)CC3C2)cccc1N1CCCCC1` (stereo not drawn) [Example 29, 1,1,1,3,3,3-Hexafluoropropan-2-yl 5-[[2-methyl-3-(piperidin-1-yl)phenyl]methyl]-octahydropyrrolo[3,4-c]pyrrole-2-carboxylate], the IC50 in experiment [1] is more than 10000 nM; in experiment [2] it was 1000 to 10000 nM; in experiment [3], less than 100 nM. The compound further registered an inhibition at 5 mg/kg in experiment [4] not above 25%. Moreover, the inhibition at 1 µM is less than 25% in experiment [5], 25 to 75% in experiment [6] and more than 75% in experiment [7].

Take `CCn1cc(CN2CC3CN(C(=O)OC(C(F)(F)F)C(F)(F)F)CC3C2)c(-c2ccccc2N2CCC2)n1` (stereo not drawn) [Example 63, 1,1,1,3,3,3-Hexafluoropropan-2-yl 5-([3-[2-(azetidin-1-yl)phenyl]-1-ethyl-1H-pyrazol-4-yl]methyl)-octahydropyrrolo[3,4-c]pyrrole-2-carboxylate]: the IC50 in experiment [1] was 100 to 1000 nM; in experiment [2] it was more than 10000 nM; in experiment [3], less than 100 nM. In experiment [4], the inhibition at 5 mg/kg was not below 75%. Besides, the results for the inhibition at 1 µM in experiment [5], in experiment [6] and in experiment [7] were 25 to 75%, less than 25% and more than 75%, respectively.

Consider `CS(=O)(=O)N1CCC2(CCN(c3ccccc3CN3CC4CN(C(=O)OC(C(F)(F)F)C(F)(F)F)CC4C3)C2)C1` (stereo not drawn) [Example 134, 1,1,1,3,3,3-hexafluoropropan-2-yl 5-[(2-[7-methanesulfonyl-2,7-diazaspiro[4.4]nonan-2-yl]phenyl)methyl]-octahydropyrrolo[3,4-c]pyrrole-2-carboxylate], for which the IC50 in experiment [1] was 1000 to 10000 nM; in experiment [2], 1000 to 10000 nM; in experiment [3], less than 100 nM. Besides, the inhibition at 5 mg/kg in experiment [4] is not above 25%. Also, the results for the inhibition at 1 µM in experiment [5], in experiment [6] and in experiment [7] were less than 25%, 25 to 75% and more than 75%, respectively.

For the compound `O=C(OC(C(F)(F)F)C(F)(F)F)N1CC2CN(Cc3cc(CN4CCOCC4)ccc3OC(F)(F)F)CC2C1` (stereo not drawn) [Example 188, 1,1,1,3,3,3-hexafluoropropan-2-yl 5-(5-(morpholinomethyl)-2-(trifluoromethoxy)benzyl)hexahydropyrrolo[3,4-c]pyrrole-2(1H)-carboxylate], the results for the IC50 in experiment [1], in experiment [2] and in experiment [3] were 1000 to 10000 nM, 1000 to 10000 nM and less than 100 nM, respectively. Moreover, the inhibition at 5 mg/kg in experiment [4] is not below 75%. In addition, the inhibition at 1 µM in experiment [5] is less than 25%; in experiment [6], less than 25%; in experiment [7], more than 75%.

For the compound `CCn1cc(CN2CC3CN(C(=O)OC(C(F)(F)F)C(F)(F)F)CC3C2)c(-c2ccccc2N2CCOCC2)n1` (stereo not drawn) [Example 131, 1,1,1,3,3,3-hexafluoropropan-2-yl 5-([1-ethyl-3-[2-(morpholin-4-yl)phenyl]-1H-pyrazol-4-yl]methyl)-octahydropyrrolo[3,4-c]pyrrole-2-carboxylate], the IC50 in experiment [1] was 1000 to 10000 nM; in experiment [2] it was more than 10000 nM; in experiment [3], less than 100 nM. In experiment [4], the inhibition at 5 mg/kg is not below 75%. The inhibition at 1 µM is less than 25% in experiment [5], less than 25% in experiment [6] and more than 75% in experiment [7].

Take `CCn1cc(CN2CC3CN(C(=O)OC(C(F)(F)F)C(F)(F)F)CC3C2)c(-c2cccc(N3CCCC3)c2)n1` (stereo not drawn) [Example 64, 1,1,1,3,3,3-Hexafluoropropan-2-yl 5-([1-ethyl-3-[3-(pyrrolidin-1-yl)phenyl]-1H-pyrazol-4-yl]methyl)-octahydropyrrolo[3,4-c]pyrrole-2-carboxylate]: the figures for the half-inhibitory concentration (IC50) in experiment [1], in experiment [2] and in experiment [3] were 1000 to 10000 nM, 1000 to 10000 nM and less than 100 nM, respectively. This compound also displayed an inhibition at 5 mg/kg in experiment [4] of 25 to 75%. Also, the values for the inhibition at 1 µM in experiment [5], in experiment [6] and in experiment [7] were less than 25%, less than 25% and more than 75%, respectively.

As for `CCc1cc(CN2CC3CN(C(=O)OC(C(F)(F)F)C(F)(F)F)CC3C2)n(-c2ccccc2Cl)n1` (stereo not drawn) [Example 169, 1,1,1,3,3,3-hexafluoropropan-2-yl 5-[[1-(2-chlorophenyl)-3-ethyl-1H-pyrazol-5-yl]methyl]-octahydropyrrolo[3,4-c]pyrrole-2-carboxylate], the values for the half-inhibitory concentration (IC50) in experiment [1], in experiment [2] and in experiment [3] were 1000 to 10000 nM, 1000 to 10000 nM and less than 100 nM, respectively. This compound had an inhibition at 5 mg/kg in experiment [4] not above 25%. Besides, the results for the inhibition at 1 µM in experiment [5], in experiment [6] and in experiment [7] were 25 to 75%, less than 25% and more than 75%, respectively.

Regarding `CC(=O)N1CCC2(CCN(c3ccccc3CN3CC4CN(C(=O)OC(C(F)(F)F)C(F)(F)F)CC4C3)C2)C1` (stereo not drawn) [Example 135, 1,1,1,3,3,3-hexafluoropropan-2-yl 5-[(2-[7-acetyl-2,7-diazaspiro[4.4]nonan-2-yl]phenyl)methyl]-octahydropyrrolo[3,4-c]pyrrole-2-carboxylate], the IC50 in experiment [1] is 1000 to 10000 nM; in experiment [2], 1000 to 10000 nM; in experiment [3] it was less than 100 nM. This compound also registered an inhibition at 5 mg/kg in experiment [4] not above 25%. The inhibition at 1 µM is less than 25% in experiment [5], less than 25% in experiment [6] and more than 75% in experiment [7].

Take `CCn1cc(CN2CC3CN(C(=O)OC(C(F)(F)F)C(F)(F)F)CC3C2)c(-c2cccc(N3CCCCC3)c2)n1` (stereo not drawn) [Example 132, 1,1,1,3,3,3-hexafluoropropan-2-yl 5-([1-ethyl-3-[3-(piperidin-1-yl)phenyl]-1H-pyrazol-4-yl]methyl)-octahydropyrrolo[3,4-c]pyrrole-2-carboxylate]: the IC50 in experiment [1] was 1000 to 10000 nM; in experiment [2], 1000 to 10000 nM; in experiment [3], less than 100 nM. In experiment [4], this compound showed an inhibition at 5 mg/kg not above 25%. Also, the values for the inhibition at 1 µM in experiment [5], in experiment [6] and in experiment [7] were less than 25%, less than 25% and more than 75%, respectively.
